Assay results: patent US20260028354A1, “TETRAHYDRONAPHTHALENE DERIVATIVES AS ESTROGEN RECEPTOR DEGRADERS” (REGENT OF THE UNIVERSITY OF MICHIGAN, priority 2022, published 2026)
Where two headings read alike, the source gives them in different places.

Tests used:
CRBN/DDB1 = CRBN/DDB1 (Homo sapiens (Human), UniProt Q96SW2); assay type: binding; settings: His tagged CRBN+DDB1, Cy5-labeled Thalidomide probe, one hour; read-out: CRBN HTRF IC50
Description: The binding potency was determined using HTRF assay technology (Perkin Elmer). Compounds were serially diluted in DMSO and […] volume was transferred to white 384-well plate.

ER in MCF-7 cells = ER in MCF-7 cells (Homo sapiens (Human), UniProt P03372); assay: In-cell Western (ICW) ER degradation assay in MCF-7 cells; assay type: cell-based; settings: for DC50: MCF-7, ER degradation, read-out: MCF7 DC50
ER in T47D cells = ER in T47D cells (Homo sapiens (Human), UniProt P03372); assay: In-cell Western (ICW) ER degradation assay in T47D cells; assay type: cell-based; settings: 16 hrs treatment; for DC50: ER degradation
Source text: In-cell Western (ICW) assays in MCF-7 and T47D cell lines.
Day 3: After 16 hrs of compounds treatment, cells were fixed by 4% PFA and permeabilized with elution buffer (0.1% Triton X-100 in 1% PBS Solution). Subsequently, cells were blocked with Intercept (PBS) Blocking Buffer (Li-COR, Odyssey Blocking Buffer), and were stained with ER (1:500, Cell signaling) primary antibody for overnight at cold room.
Day 4: Remove the buffer, add IRDye 800CW Goat anti-Rabbit IgG Secondary Antibody (1:2000) and CellTag 700 Stain (1:500) in Intercept (PBS) Blocking Buffer. Finally, cell plate is placed in incubator to dry. Image and signal were captured on Odyssey® DLx Imaging System.

[1] = MCF7, read-out: MCF7 Dmax, MCF-7, maximal ER degradation, 16 hrs treatment

CRBN/DDB1, sequence (Q96SW2 whole entry, species assumed): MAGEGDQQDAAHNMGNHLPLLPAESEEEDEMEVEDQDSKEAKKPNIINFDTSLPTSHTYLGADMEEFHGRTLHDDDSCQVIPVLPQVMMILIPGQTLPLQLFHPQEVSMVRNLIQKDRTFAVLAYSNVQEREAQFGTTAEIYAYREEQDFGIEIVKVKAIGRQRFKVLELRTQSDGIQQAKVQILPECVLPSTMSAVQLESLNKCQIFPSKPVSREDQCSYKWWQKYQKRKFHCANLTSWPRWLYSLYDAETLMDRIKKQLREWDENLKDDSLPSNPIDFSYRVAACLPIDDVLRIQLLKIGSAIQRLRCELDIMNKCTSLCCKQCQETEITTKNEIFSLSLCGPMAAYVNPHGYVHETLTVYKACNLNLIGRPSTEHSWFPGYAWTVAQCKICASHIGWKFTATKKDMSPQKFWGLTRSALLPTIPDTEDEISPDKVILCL
CRBN/DDB1, sequence (Q16531 whole entry partner, species assumed): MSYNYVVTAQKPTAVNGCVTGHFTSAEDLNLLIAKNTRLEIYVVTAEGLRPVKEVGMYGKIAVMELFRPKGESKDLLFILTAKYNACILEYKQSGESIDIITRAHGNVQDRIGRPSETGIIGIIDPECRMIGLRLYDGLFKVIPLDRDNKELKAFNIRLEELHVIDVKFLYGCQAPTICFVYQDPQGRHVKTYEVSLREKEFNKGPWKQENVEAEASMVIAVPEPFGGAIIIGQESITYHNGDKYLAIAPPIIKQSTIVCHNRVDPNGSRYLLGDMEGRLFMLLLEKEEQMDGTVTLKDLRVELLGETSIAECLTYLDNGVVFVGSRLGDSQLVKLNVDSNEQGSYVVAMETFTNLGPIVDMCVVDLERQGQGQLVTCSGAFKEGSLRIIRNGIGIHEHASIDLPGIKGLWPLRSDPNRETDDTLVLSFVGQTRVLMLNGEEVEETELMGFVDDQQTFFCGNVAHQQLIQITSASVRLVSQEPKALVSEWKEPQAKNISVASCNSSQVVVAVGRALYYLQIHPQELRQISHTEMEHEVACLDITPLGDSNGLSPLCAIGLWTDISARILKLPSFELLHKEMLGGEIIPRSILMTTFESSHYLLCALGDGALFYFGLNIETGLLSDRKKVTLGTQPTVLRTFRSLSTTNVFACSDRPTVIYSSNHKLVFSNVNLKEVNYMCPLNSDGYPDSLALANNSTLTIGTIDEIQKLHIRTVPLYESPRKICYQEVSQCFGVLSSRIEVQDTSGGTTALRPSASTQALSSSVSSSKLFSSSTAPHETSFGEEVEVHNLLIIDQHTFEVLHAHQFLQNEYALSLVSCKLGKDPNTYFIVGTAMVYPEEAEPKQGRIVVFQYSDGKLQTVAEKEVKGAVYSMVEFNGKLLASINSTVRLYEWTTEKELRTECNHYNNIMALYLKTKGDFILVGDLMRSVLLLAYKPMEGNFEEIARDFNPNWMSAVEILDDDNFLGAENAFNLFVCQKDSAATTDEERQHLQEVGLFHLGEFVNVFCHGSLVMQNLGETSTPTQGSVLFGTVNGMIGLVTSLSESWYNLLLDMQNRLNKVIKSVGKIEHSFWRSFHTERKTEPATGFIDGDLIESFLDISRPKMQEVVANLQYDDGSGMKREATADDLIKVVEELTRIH
ER in T47D cells, sequence (P03372 whole entry): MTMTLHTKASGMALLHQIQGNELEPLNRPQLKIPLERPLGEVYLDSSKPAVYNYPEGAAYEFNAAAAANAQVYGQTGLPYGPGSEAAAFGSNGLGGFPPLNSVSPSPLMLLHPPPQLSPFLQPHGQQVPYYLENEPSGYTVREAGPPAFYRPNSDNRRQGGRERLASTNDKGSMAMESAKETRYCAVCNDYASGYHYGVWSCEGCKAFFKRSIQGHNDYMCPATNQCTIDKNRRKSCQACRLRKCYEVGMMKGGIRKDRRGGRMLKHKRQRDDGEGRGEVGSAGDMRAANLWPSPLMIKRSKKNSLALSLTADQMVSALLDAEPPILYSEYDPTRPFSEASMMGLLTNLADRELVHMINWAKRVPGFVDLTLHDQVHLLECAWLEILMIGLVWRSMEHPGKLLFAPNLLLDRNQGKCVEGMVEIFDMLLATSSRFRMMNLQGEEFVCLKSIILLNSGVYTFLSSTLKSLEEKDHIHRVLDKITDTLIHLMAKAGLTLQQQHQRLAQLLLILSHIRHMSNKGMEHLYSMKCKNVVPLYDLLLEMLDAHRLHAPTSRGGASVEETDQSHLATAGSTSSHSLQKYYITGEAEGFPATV
ER in MCF-7 cells, sequence (P03372 whole entry): as above

Molecule | IC50 (CRBN/DDB1) | Dmax (ER in MCF-7 cells; MCF7, MCF-7, maximal ER degradation, 16 hrs treatment, read-out: MCF7 Dmax) | DC50 (ER in MCF-7 cells; 16 hrs treatment) | DC50 (ER in T47D cells) | Dmax (ER in T47D cells; maximal ER degradation, read-out: T47D Dmax) | T47D Dmax (ER in T47D cells; maximal ER degradation) | Dmax (ER in MCF-7 cells; [1]) | MCF7 Dmax (ER in MCF-7 cells; MCF-7, maximal ER degradation, 16 hrs treatment)
O=C1CC[C@H](N2Cc3cc4c(cc3C2=O)OC[C@H]2CN(C[C@H]3COC5(CCN(c6ccc([C@H]7c8ccc(O)cc8CC[C@H]7c7ccccc7)cc6)CC5)C3)CCN42)C(=O)N1 (single isomer, unassigned) [Compound A19] | 50 to 500 nM | 50 to 75% | 1 to 10 nM | 1 to 10 nM | 50 to 75% |  |  | 
COc1cc([C@@H]2c3ccc(O)cc3CC[C@@H]2c2ccccc2)c(F)cc1N1CCC(CN2CCN3c4ccc5c(c4OC[C@H]3C2)CN([C@H]2CCC(=O)NC2=O)C5=O)CC1 (single isomer, unassigned) [Compound A98] | 50 to 500 nM |  |  | 10 to 100 nM |  | C (“C”: 25-50%) |  | 
COc1cc(C2c3ccc(O)cc3CCC2c2ccccc2)c(F)cc1N1CCC(CN2CCN3c4ccc5c(c4OC[C@H]3C2)CN([C@H]2CCC(=O)NC2=O)C5=O)CC1 (stereo in doubt) [Compound A97, (S)-3-((R)-7-((1-(5-fluoro-4-((1R,2R)-6-hydroxy-2-phenyl-1,2,3,4-tetrahydronaphthalen-1-yl)-2-methoxyphenyl)piperidin-4-yl)methyl)-1-oxo-1,3,5,5a,6,7,8,9-octahydro-2H-pyrazino[1′,2′: 4,5][1,4]oxazino[2,3-e]isoindol-2-yl)piperidine-2,6-dione] | 50 to 500 nM |  |  | 1 to 10 nM |  | A (“A”: >=75%) |  | 
O=C1CC[C@H](N2Cc3c(ccc4c3OC[C@H]3CN(CC5CC6COCC(C5)N6c5ccc([C@@H]6c7ccc(O)cc7CC[C@@H]6c6ccccc6)cc5)CCN43)C2=O)C(=O)N1 (stereo partly drawn) [Compound A83, (3S)-3-((5aR)-7-((9-(4-((1R, 2S)-6-hydroxy-2-phenyl-1,2,3,4-tetrahydronaphthalen-1-yl)phenyl)-3-oxa-9-azabi-cyclo[3.3.1]nonan-7-yl)meth-yl)-1-oxo-1,3,5,5a,6,7,8,9-octa-hydro-2H-pyrazino[1′,2′:4,5] [1,4]oxazino[2,3-e]isoindol-2-yl)piperidine-2,6-dione] | 50 to 500 nM |  |  | < 1 nM |  | B (“B”: >50 and <75%) |  | 
O=C1CC[C@H](N2Cc3cc4c(cc3C2=O)OCC42CCN(CC3CC4(CCN(c5ccc([C@H]6c7ccc(O)cc7CC[C@H]6c6ccccc6)cn5)CC4)C3)CC2)C(=O)N1 [Compound A125, (S)-3-(1′-((7-(5-((1R,2R)-6-hydroxy-2-phenyl-1,2,3,4-tetra-hydronaphthalen-1-yl)pyridin-2-yl)-7-azaspiro[3.5]nonan-2-yl)methyl)-7-oxo-5,7-dihydro-2H,6H-spiro[furo[2,3-f]iso-indole-3,4′-piperidin]-6-yl)-piperidine-2,6-dionc] | 50 to 500 nM |  |  | 10 to 100 nM |  | B (“B”: >50 and <75%) |  | 
O=C1CC[C@H](N2Cc3c(ccc4c3OCC43CCN(CC4CC5(CCN(c6ncc([C@H]7c8ccc(O)cc8CC[C@H]7c7ccccc7)cn6)CC5)C4)CC3)C2=O)C(=O)N1 [Compound A141, (S)-3-(1′-((7-(5-((1R,2R)-6-hydroxy-2-phenyl-1,2,3,4-tetrahydronaphthalen-1-yl)pyrimidin-2-yl)-7-azaspiro[3.5]nonan-2-yl)methyl)-6-oxo-6,8-dihydro-2H,7H-spiro[furo[2,3-e]isoindole-3,4′-piperidin]-7-yl)piperidine-2,6-dione] | < 50 nM |  | 1 to 10 nM |  |  |  | 50 to 75% | 
O=C1CC[C@H](N2Cc3c(ccc4c3OCC43CCN(CC4CC5(CCN(c6ncc([C@@H]7c8ccc(O)cc8CC[C@@H]7c7ccccc7)cn6)CC5)C4)CC3)C2=O)C(=O)N1 [Compound A142, (S)-3-(1′-((7-(5-((1S,2S)-6-hydroxy-2-phenyl-1,2,3,4-tetrahydronaphthalen-1-yl)pyrimidin-2-yl)-7-azaspiro[3.5]nonan-2-yl)methyl)-6-oxo-6,8-dihydro-2H,7H-spiro[furo[2,3-e]isoindole-3,4′-piperidin]-7-yl)piperidine-2,6-dione] | < 50 nM |  | < 1 nM |  |  |  | 50 to 75% | 
O=C1CC[C@H](N2Cc3c(ccc4c3OCC43CCN(CC4CCC5(CC4)CN(c4ncc([C@H]6c7ccc(O)cc7CC[C@H]6c6ccccc6)cn4)C5)CC3)C2=O)C(=O)N1 [Compound A153, (S)-3-(1′-((2-(5-((1R,2R)-6-hydroxy-2-phenyl-1,2,3,4-tetrahydronaphthalen-1-yl)pyrimidin-2-yl)-2-azaspiro[3.5]nonan-7-yl)methyl)-6-oxo-6,8-dihydro-2H,7H-spiro[furo[2,3-e]isoindole-3,4′-piperidin]-7-yl)piperidine-2,6-dione] | < 50 nM |  | > 100 nM |  |  |  | < 25% | 
O=C1CC[C@H](N2Cc3c(ccc4c3OCC43CCN(CC4CCC5(CC4)CN(c4ccc([C@H]6c7ccc(O)cc7CC[C@H]6c6ccccc6)cc4F)C5)CC3)C2=O)C(=O)N1 [Compound A160, (S)-3-(1′-((2-(2-fluoro-4-((1S, 2R)-6-hydroxy-2-phenyl-1,2,3,4-tetrahydronaphthalen-1-yl)phenyl)-2-azaspiro[3.5]nonan-7-yl)methyl)-6-oxo-6,8-dihydro-2H,7H-spiro[furo[2,3-c]isoindolc-3,4′-pipcridin]-7-yl)pipcridinc-2,6-dione] | 50 to 500 nM |  | 10 to 100 nM |  |  |  | 50 to 75% | 
(S)-3-((3-fluoro-4-(1-((1-(2-fluoro-4-((1S,2S)-6-hydroxy-2-phenyl-1,2,3,4-tetrahydronaphthalen-1-yl)-5-methoxyphenyl)piperidin-4-yl)methyl)piperidin-4-yl)phenyl)amino)piperidine-2,6-dione [Compound A120] | 500 to 5000 nM |  | 10 to 100 nM |  |  |  |  | C (“C”: 25-50%)
